Assay results published in PubChem BioAssay (NCI).
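Compound exposure: 48 hours, 5 concentrations, 96-well plates. The concentration for full growth arrest is given as TGI.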 Where a SMILES comes first, the peptide text is derived from it. The star is where a group is joined. Boc = CC(C)(C)OC(=O)*

What was measured:
Experiment in all cases: inhibition of tumour cell growth, NCI panel, 48 h
MOLT-4 leukemia = system: MOLT-4 leukemia
OVCAR-3 ovarian = system: OVCAR-3 ovarian
HT29 colon = system: HT29 colon
CCRF-CEM leukemia = system: CCRF-CEM leukemia
UO-31 renal = system: UO-31 renal
SF-295 CNS = system: SF-295 CNS
M14 melanoma = system: M14 melanoma
SK-MEL-5 melanoma = system: SK-MEL-5 melanoma
BT-549 breast = system: BT-549 breast
MDA-MB-231 breast = system: MDA-MB-231 breast

Structure (SMILES) | TGI (MOLT-4 leukemia) | TGI (OVCAR-3 ovarian) | TGI (HT29 colon) | TGI (CCRF-CEM leukemia) | TGI (UO-31 renal) | TGI (SF-295 CNS) | TGI (M14 melanoma) | TGI (SK-MEL-5 melanoma) | TGI (BT-549 breast) | TGI (MDA-MB-231 breast)
O=c1cc(-c2ccccc2)[nH]c2ncccc12 | > 100 µM | > 100 µM | 0.426 µM | > 100 µM | > 100 µM | 0.269 µM | > 100 µM | > 60.6 µM | > 100 µM | > 26.7 µM
Oc1c(CN2CCCC2)ccc2cccnc12 | > 100 µM | > 82.7 µM | > 69 µM | > 73.6 µM | 14.1 µM | > 100 µM | 80.7 µM | > 67.7 µM | > 100 µM | > 100 µM
COc1ccc(-n2c(SC(CN3CCOCC3)CN3CCCC3=O)nc3ccccc3c2=O)cc1 (stereo not given) | > 100 µM | > 100 µM | > 100 µM | > 100 µM | > 100 µM | > 100 µM | > 100 µM | > 100 µM | > 100 µM | > 100 µM
Cc1nn(C(=O)c2ccccc2O)c2c1C(c1ccc(O)cc1O)SC(N)=N2 (stereo not given) | > 10 µM | > 10 µM | > 10 µM | > 10 µM | 8.02 µM | > 10 µM | > 10 µM | > 10 µM | 8.39 µM | > 10 µM
Cc1cc2cc3cc(C)c(N)cc3nc2cc1N | 0.894 µM | 1.85 µM | 1.6 µM | 2.52 µM | 10.4 µM | 1.41 µM | 21.9 µM | 14.6 µM | > 44.5 µM | 1.27 µM
C[C@@]1(CCCCCCCCCCc2ccccc2)C[C@@]2(C)OC(=O)C[C@H]2OO1 | 2.88 µM | 34.6 µM | 31.5 µM | 3.34 µM | 49.9 µM | 4.97 µM | 2.98 µM | 2.26 µM | 0.979 µM | 36.4 µM
O=c1c2c3c(sc2nc2n1N=CN(c1ccccc1)C2)CCCC3 | > 100 µM | > 100 µM | > 100 µM | > 100 µM | > 100 µM | > 100 µM | > 100 µM | > 100 µM | > 100 µM | > 100 µM
O=C1c2ccccc2C(=O)N1n1c(Cc2ccc(Cl)cc2)n[nH]c1=O | > 100 µM | > 100 µM | > 100 µM | > 100 µM | > 100 µM | > 100 µM | > 100 µM | > 100 µM | > 100 µM | > 100 µM
CC(C)(C)NC1=NC(C(F)(F)F)(C(F)(F)F)NC(=O)N1 | > 100 µM | > 100 µM | > 100 µM | > 100 µM | > 100 µM | > 100 µM | > 100 µM | 80.5 µM | > 100 µM | > 100 µM
COC1=C[C@]2(CCC(=O)O2)[C@@H]2Cc3ccccc3[C@H](O)[C@@H]2C1=O | 38.9 µM | > 100 µM | > 100 µM | 35.8 µM | > 100 µM | > 100 µM | > 100 µM | 33.7 µM | > 100 µM | > 100 µM
N[C@H]1c2c(Br)sc(Br)c2C(=O)[C@H]1O | > 22 µM | > 61.9 µM | 30.8 µM | 6.63 µM | 47.2 µM | 51.1 µM | 48.4 µM | 41.8 µM | 16.5 µM | 36.1 µM
Clc1ccc(CCNC2(c3cc4ccccc4s3)CCCCC2)cc1Cl | 37.9 µM | 49.2 µM | 87.1 µM | 31 µM | 36.7 µM | 84.3 µM | > 100 µM | 31.7 µM | 84.5 µM | 43.2 µM
COc1ccc2c(c1)CC[C@@H]1C2CC[C@]2(C)C(=O)N(CCN(C)C)C(=O)CC12 (stereo not given in full) | > 100 µM | > 100 µM | > 100 µM | > 100 µM | > 100 µM | > 100 µM | > 100 µM | > 100 µM | > 100 µM | > 100 µM
COC(=O)c1c(O)ccc2c1c1cc3ccccc3cc1n2Cc1cc(OC)cc(OC)c1 | > 100 µM | 2.45 µM | > 48.1 µM | > 100 µM | > 100 µM | 7.18 µM | > 100 µM | 18.5 µM | > 100 µM | > 100 µM
CC(=O)C1=C(C)O[C@@H]2O[C@H](COCc3ccccc3)[C@@H](OCc3ccccc3)[C@H](O)[C@@H]2S1 | 33.3 µM | 29.4 µM | 43.2 µM | 16.8 µM | 37.7 µM | 31.3 µM | 39.8 µM | 32.2 µM | 46.4 µM | 40.1 µM
O=C1/C(=C/c2ccc(O)cc2)CCCC1CN1CCCCC1 (stereo not given) | 4.82 µM | 14.9 µM | 6.91 µM | > 100 µM | 5.88 µM | 29.9 µM | 8.07 µM | 17.8 µM | 6.89 µM | 4.43 µM

Structure (SMILES) | TGI (MOLT-4 leukemia) | TGI (OVCAR-3 ovarian) | TGI (HT29 colon) | TGI (CCRF-CEM leukemia) | TGI (UO-31 renal) | TGI (SF-295 CNS) | TGI (M14 melanoma) | TGI (SK-MEL-5 melanoma) | TGI (BT-549 breast) | TGI (MDA-MB-231 breast)
COC(=O)C(Cc1ccccc1)NC(=O)C(CS)NC(=O)OC(C)(C)C (stereo not drawn) (Boc-Cys-Phe-OMe; configuration not given here) | 41.3 µM | > 100 µM | > 100 µM | 89.3 µM | > 100 µM | > 100 µM | > 100 µM | > 100 µM | > 100 µM | > 100 µM
O=C(CCBr)N1CCN(C(=O)CCBr)CC1 | 215 µM | 218 µM | 280 µM | 257 µM | 293 µM | 212 µM | 131 µM | 149 µM | 85.3 µM | 242 µM
O=C(NC(=S)Nc1ccc([N+](=O)[O-])cc1)c1ccc2c(c1)Sc1ccccc1O2 | > 100 µM | > 100 µM | > 100 µM | > 100 µM | > 100 µM | > 100 µM | > 100 µM | > 100 µM | > 100 µM | > 100 µM
CN(C)CN1CSC(=S)N(CN(C)C)C1 | 92.4 µM | > 100 µM | > 100 µM | > 100 µM | > 100 µM | > 100 µM | > 100 µM | > 100 µM | > 100 µM | > 100 µM
Cc1ncc([N+](=O)[O-])n1CC[N+](C)([O-])CCCCn1ccnc1[N+](=O)[O-] (stereo not given) | > 100 µM | > 100 µM | > 100 µM | > 100 µM | > 100 µM | > 100 µM | > 100 µM | > 100 µM | > 100 µM | > 100 µM
CN(C)Cc1c(O)ccc2c1c1c(n2C)C(=O)c2ccccc2C1=O | > 100 µM | 48.4 µM | 5.19 µM | > 100 µM | 37.5 µM | 84.6 µM | > 100 µM | 23.1 µM | 42.1 µM | > 100 µM
COC(=O)Nc1nc2ccc(S(=O)(=O)Nc3ccccn3)cc2[nH]1 | 64 µM | > 100 µM | > 100 µM | 54.2 µM | > 100 µM | > 100 µM | > 100 µM | > 100 µM | > 100 µM | > 100 µM
COc1cc(CC(C)=O)cc(OC)c1 | 73.2 µM | > 100 µM | > 100 µM | > 100 µM | > 100 µM | > 100 µM | > 100 µM | > 100 µM | > 100 µM | > 100 µM
COC(=O)CNC(=O)C(Cc1ccccc1)NC(=O)c1ccc(-c2ccc(Cl)cc2Cl)o1 (stereo not given) | 49.2 µM | 72.5 µM | 52.7 µM | 39.5 µM | > 100 µM | 64.3 µM | > 100 µM | > 100 µM | > 100 µM | 52.4 µM
O=C(c1ccccc1)N1CCN(C(=S)NC2CCCCC2)C1=S | 56 µM | 30.7 µM | 44.1 µM | 45.1 µM | 30.5 µM | 54.4 µM | 31.3 µM | 34.4 µM | 44.2 µM | 21.1 µM
O=c1[nH]c(=O)c2ncn(-c3ccc([N+](=O)[O-])cn3)c2[nH]1 | > 100 µM | > 100 µM | > 100 µM | > 100 µM | > 100 µM | > 100 µM | > 100 µM | > 100 µM | > 100 µM | > 100 µM
CNC(=O)N(CCC#N)CCN(C(=O)NC)c1ccccc1 | > 100 µM | > 100 µM | > 100 µM | > 100 µM | > 100 µM | > 100 µM | > 100 µM | > 100 µM | > 100 µM | > 100 µM
CC(=O)OCC1OC(n2cnc3nc(Br)[nH]c(=O)c32)C(OC(C)=O)C1OC(C)=O (stereo not given) | > 100 µM | > 100 µM | > 100 µM | > 100 µM | > 100 µM | > 100 µM | > 100 µM | > 100 µM | > 100 µM | > 100 µM
Cc1ccc(S(=O)(=O)N2CCC[C@@H]2C(=O)O[C@@H]2CCC3CC=CC32)cc1 (stereo not given in full) | > 100 µM | 38.8 µM | > 100 µM | > 100 µM | 41.5 µM | > 100 µM | > 100 µM | 29.2 µM | 44.3 µM | > 100 µM
Cn1c(-c2ccc[se]2)ccc1-c1ccc(C=O)[se]1 | > 100 µM | 5.71 µM | > 100 µM | 14.1 µM | > 100 µM | 58.8 µM | > 100 µM | > 100 µM | 65.4 µM | > 100 µM
Cc1ccc(/C=C/C(=O)Oc2ccc(/C=C3\CCC/C(=C\c4ccc(OC(=O)/C=C/c5ccc(C)cc5)cc4)C3=O)cc2)cc1 | > 100 µM | > 100 µM | > 100 µM | > 100 µM | > 100 µM | > 100 µM | > 100 µM | > 100 µM | > 100 µM | > 100 µM
